Results as given in ChEMBL document CHEMBL4814008, “Using porphyrins as albumin-binding molecules to enhance antitumor efficacies and reduce systemic toxicities of antimicrobial peptides” (Eur J Med Chem, 2021).
The source made the active and inactive calls. The rule behind the calls is not given here.

Key:
4T1 [1] = test: (§1) Anti-metastatic activity against mouse 4T1 cells xenografted in BALB/c mouse assessed as metastasized area in lungs at 2.4 mg/kg, iv dosed every 3 days for 23 days and measured on day 30 by hematoxylin and eosin staining based analysis (reference value: 44.8%); format: functional; details: time 30 day
[2] = Toxicity in ICR mouse assessed as effect on lungs morphology at 100 uM, iv measured after 24 hrs by H and E staining based light microscopic analysis; format: organism-based; details: in vivo
[3] = Toxicity in ICR mouse assessed as effect on kidney morphology at 100 uM, iv measured after 24 hrs by H and E staining based light microscopic analysis; format: organism-based; details: in vivo
4T1 [4] = test: Antitumor activity against mouse 4T1 cells xenografted in BALB/c mouse assessed as reduction in tumor weight at 2.4 mg/kg, iv dosed every 3 days for 23 days and measured on day 23; format: functional; details: 4T1, iv, 552 h, time 23 day
[5] = Hepatotoxicity in ICR mouse assessed as hepatocytes with extensive shrinking cytoplasm, destroyed intercellular connections, necrotic cells with smeared nuclei at 100 uM, iv measured after 24 hrs by H and E staining based light microscopic analysis; format: toxicity, organism-based
[6] = Toxicity in ICR mouse assessed as effect on spleen morphology at 100 uM, iv measured after 24 hrs by H and E staining based light microscopic analysis; format: organism-based; details: in vivo
4T1 [7] = test: Antitumor activity against mouse 4T1 cells xenografted in BALB/c mouse assessed as inhibition of tumor growth at 2.4 mg/kg, iv dosed every 3 days for 23 days; format: functional, organism-based; details: time 23.0 day
[8] = Toxicity in ICR mouse assessed as effect on heart morphology at 100 uM, iv measured after 24 hrs by H and E staining based light microscopic analysis; format: organism-based; details: in vivo
Erythrocyte [9] = test: Induction of hemolysis in RBC (unknown origin) in presence of 10% FBS; format: cell-based
Erythrocyte [10] = test: Induction of hemolysis in RBC (unknown origin) in absence of serum; format: cell-based
CWR22R = test: Cytotoxicity against human 22RV1 cells; format: functional, cell-based
[11] = Drug uptake in human L02 cells by flow cytometric analysis; format: ADME, cell-based
Albumin = Albumin (Homo sapiens, UniProt P02768); test: Binding affinity to human serum albumin assessed as dissociation constant by fluorescence emission spectrophotometric analysis; format: ADME, cell-free
[12] = Drug uptake in human MDA-MB-231 cells by flow cytometric analysis; format: ADME, cell-based
4T1 [13] = test: Phototoxicity against mouse 4T1 cells in presence of illumination by MTT assay; format: functional, cell-based; details: 4T1, light or radiation study
4T1 [14] = test: Phototoxicity against mouse 4T1 cells in presence of illumination by MTT assay relative to control; format: functional
MDA-MB-231 [15] = test: Induction of apoptosis in human MDA-MB-231 cells assessed as necrotic cells at […] in presence of illumination by flow cytometric analysis; format: functional; details: dose 0.25 µM
[16] = Drug localization in nucleus of human MDA-MB-231 cells at 0.5 uM by DAPI staining based confocal laser scanning microscopic method; format: ADME, subcellular; details: mda-mb-231, 0.5 µM
MDA-MB-231 [17] = test: Induction of apoptosis in human MDA-MB-231 cells assessed as early apoptotic cells at […] by flow cytometric analysis; format: functional; details: dose 2.5 µM
MDA-MB-231 [18] = test: Cytotoxicity against human MDA-MB-231 cells assessed as reduction in cell viability at 0.5 uM by calcein-AM/PI staining based fluorescence analysis; format: functional
4T1 [19] = test: Cytotoxicity against mouse 4T1 cells by MTT assay; format: functional, cell-based
[20] = Drug localization in mitochondria of human MDA-MB-231 cells at 0.5 uM by DAPI staining based confocal laser scanning microscopic method; format: ADME; details: mda-mb-231, 0.5 µM
MDA-MB-231 [21] = test: Cytotoxicity against human MDA-MB-231 cells assessed as reduction in cell viability at 5 uM by calcein-AM/PI staining based fluorescence analysis; format: functional
[22] = Hepatotoxicity in ICR mouse assessed as hepatocytes with intact nuclei and cytoplasm at 100 uM, iv measured after 24 hrs by H and E staining based light microscopic analysis; format: toxicity, organism-based
[23] = Binding affinity to 1-20% fetal bovine serum protein in PBS assessed as increase in fluorescence emission by fluorescence spectrophotometric analysis; format: ADME, cell-free, Bos taurus; details: cattle
4T1 [24] = test: Antitumor activity against mouse 4T1 cells xenografted in BALB/c mouse assessed as reduction in tumor weight at 2.4 mg/kg, iv dosed every 3 days for 23 days and illuminated with 670 nm laser light 30 mins after the first dose and measured on day 23; format: functional; details: 4T1, iv, 552 h, time 23 day
[25] = Drug uptake in tumor of BALB/c mouse xenografted with mouse 4T1 cells at 100 uM, iv measured after 120 hrs by fluorescence molecular tomography; format: ADME, organism-based, Neoplasm; details: in vivo
[26] = Binding affinity to 1-20% fetal bovine serum protein in PBS assessed as shift in Q-band by UV/Vis spectrophotometric analysis; format: ADME, cell-free, Bos taurus; details: cattle
MDA-MB-231 [27] = test: Induction of apoptosis in human MDA-MB-231 cells assessed as necrotic cells at […] by flow cytometric analysis; format: functional; details: dose 2.5 µM
MDA-MB-231 [28] = test: Induction of apoptosis in human MDA-MB-231 cells assessed as early apoptotic cells at […] in presence of illumination by flow cytometric analysis; format: functional; details: dose 0.25 µM
[29] = Drug localization in lysosomes of human MDA-MB-231 cells at 0.5 uM by DAPI staining based confocal laser scanning microscopic method; format: ADME, subcellular, Lysosome; details: mda-mb-231, 0.5 µM
MDA-MB-231 [30] = test: Phototoxicity against human MDA-MB-231 cells assessed as reduction in cell viability at 0.5 uM in presence of illumination by calcein-AM/PI staining based fluorescence analysis; format: functional
[31] = Time-dependent drug uptake in mouse 4T1 cells measured for 24 hrs by flow cytometric analysis; format: ADME, cell-based; details: 4t1, 24 h, TDE = time-dependent effect
4T1 [32] = test: as §1, with “days and illuminated with 670 nm laser light 30 mins after the first dose and measured on” for “days and measured on”; format: functional; details: time 30 day

Sequence of Albumin (P02768 whole entry): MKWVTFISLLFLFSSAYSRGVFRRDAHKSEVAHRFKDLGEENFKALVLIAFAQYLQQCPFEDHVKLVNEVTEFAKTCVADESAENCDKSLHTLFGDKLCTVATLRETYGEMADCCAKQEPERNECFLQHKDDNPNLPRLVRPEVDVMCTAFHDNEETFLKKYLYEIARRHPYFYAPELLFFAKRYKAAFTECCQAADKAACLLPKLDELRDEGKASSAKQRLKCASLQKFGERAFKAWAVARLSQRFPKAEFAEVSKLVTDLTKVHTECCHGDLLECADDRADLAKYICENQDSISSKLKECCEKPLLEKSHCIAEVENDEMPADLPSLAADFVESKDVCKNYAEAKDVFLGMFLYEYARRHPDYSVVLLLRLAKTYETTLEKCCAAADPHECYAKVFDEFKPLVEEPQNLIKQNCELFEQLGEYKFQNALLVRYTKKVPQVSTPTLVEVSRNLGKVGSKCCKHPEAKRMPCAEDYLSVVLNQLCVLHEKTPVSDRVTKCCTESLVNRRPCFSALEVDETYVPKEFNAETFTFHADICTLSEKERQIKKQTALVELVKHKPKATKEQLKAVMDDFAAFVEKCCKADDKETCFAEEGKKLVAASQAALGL

Row | SMILES | Activity (4T1 [1]) [%] | Activity [2] | Activity [3] | inhibition in vivo at 2.4 mg/kg (4T1 [4]) [%] | Activity [6] | Activity (4T1 [7]) | Activity [8] | Activity (Erythrocyte [9]) | Activity (Erythrocyte [10]) | Drug uptake [11] | Kd (Albumin) [nM] | Drug uptake [12] | IC50 (4T1 [13]) [nM] | Activity (4T1 [14]) [%] | other results
1 | CCN(CC)c1ccc2c(-c3ccccc3C(=O)NCC(=O)NCC(=O)N[C@@H](CC(C)C)C(=O)N[C@@H](CCCCN)C(=O)N[C@H](CC(C)C)C(=O)N[C@@H](CC(C)C)C(=O)N[C@@H](CCCCN)C(=O)N[C@H](CCCCN)C(=O)N[C@@H](CC(C)C)C(=O)N[C@H](CC(C)C)C(=O)N[C@H](CCCCN)C(=O)N[C@@H](CCCCN)C(=O)N[C@@H](CC(C)C)C(=O)N[C@@H](CC(C)C)C(=O)N[C@H](CCCCN)C(=O)N[C@@H](CC(C)C)C(=O)N[C@@H](CC(C)C)C(N)=O)c3ccc(=[N+](CC)CC)cc-3oc2c1 | 14.5 | Non-Toxic | Non-Toxic | 47.3 | Non-Toxic | Active | Non-Toxic | Non-Toxic | Toxic |  |  |  |  |  | Activity [5]: Toxic
2 | CC(C)C[C@H](NC(=O)[C@H](CC(C)C)NC(=O)[C@@H](CCCCN)NC(=O)[C@H](CC(C)C)NC(=O)[C@H](CC(C)C)NC(=O)[C@H](CCCCN)NC(=O)[C@@H](CCCCN)NC(=O)[C@@H](CC(C)C)NC(=O)[C@H](CC(C)C)NC(=O)[C@@H](CCCCN)NC(=O)[C@H](CCCCN)NC(=O)[C@H](CC(C)C)NC(=O)[C@@H](CC(C)C)NC(=O)[C@H](CCCCN)NC(=O)[C@H](CC(C)C)NC(=O)CNC(=O)CN)C(N)=O |  |  |  |  |  |  |  |  |  |  |  |  |  |  | IC50 (CWR22R): 6000 nM
3 | C=Cc1c(C)c2cc3nc(c4c5[nH]c(cc6nc(cc1[nH]2)C(C)=C6CC)c(C)c5C(=O)C4)[C@@H](CCC(=O)O)[C@@H]3C [PYROPHEOPHORBIDE A] |  |  |  |  |  |  |  |  |  | Active | 89.3 | Active | 130 | 90 | 
4 | C=Cc1c(C)c2cc3nc(c4c5[nH]c(cc6nc(cc1[nH]2)C(C)=C6CC)c(C)c5C(=O)C4)[C@@H](CCC(=O)NCC(=O)NCC(=O)N[C@@H](CC(C)C)C(=O)N[C@@H](CCCCN)C(=O)N[C@H](CC(C)C)C(=O)N[C@@H](CC(C)C)C(=O)N[C@@H](CCCCN)C(=O)N[C@H](CCCCN)C(=O)N[C@@H](CC(C)C)C(=O)N[C@H](CC(C)C)C(=O)N[C@H](CCCCN)C(=O)N[C@@H](CCCCN)C(=O)N[C@@H](CC(C)C)C(=O)N[C@@H](CC(C)C)C(=O)N[C@H](CCCCN)C(=O)N[C@@H](CC(C)C)C(=O)N[C@@H](CC(C)C)C(N)=O)[C@@H]3C | 4.7 | Non-Toxic | Non-Toxic | 90.1 | Non-Toxic | Active | Non-Toxic | Non-Toxic | Toxic | Not Active | 363 | Active | 380 | 100 | Activity (MDA-MB-231 [15]): 29%; Drug uptake [16]: Not Active; Activity (MDA-MB-231 [17]): 7.48%; Activity (MDA-MB-231 [18]): inactive; Activity (4T1 [19]): Dose-Dependent Effect; IC50 (4T1 [19]): 1690 nM; Drug uptake [20]: Active; Activity (MDA-MB-231 [21]): Active; Activity [22]: Non-Toxic; Activity [23]: Active; inhibition in vivo at 2.4 mg/kg (4T1 [24]): 98.4%; Drug uptake [25]: Active; Activity [26]: Active; Activity (MDA-MB-231 [27]): 37.52%; Activity (MDA-MB-231 [28]): 10.1%; Drug uptake [29]: Active; Activity (MDA-MB-231 [30]): Active; Drug uptake [31]: Tde; Activity (4T1 [32]): 1.5%
